# Biological target: USP7 (Homo sapiens, UniProt Q93009)
# Test: biochemical
# 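Note: fluorescence intensity readout of USP7 enzymatic activity, reaction incubated 90 min at room temperature.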
# Chain of USP7 (Q93009 whole entry): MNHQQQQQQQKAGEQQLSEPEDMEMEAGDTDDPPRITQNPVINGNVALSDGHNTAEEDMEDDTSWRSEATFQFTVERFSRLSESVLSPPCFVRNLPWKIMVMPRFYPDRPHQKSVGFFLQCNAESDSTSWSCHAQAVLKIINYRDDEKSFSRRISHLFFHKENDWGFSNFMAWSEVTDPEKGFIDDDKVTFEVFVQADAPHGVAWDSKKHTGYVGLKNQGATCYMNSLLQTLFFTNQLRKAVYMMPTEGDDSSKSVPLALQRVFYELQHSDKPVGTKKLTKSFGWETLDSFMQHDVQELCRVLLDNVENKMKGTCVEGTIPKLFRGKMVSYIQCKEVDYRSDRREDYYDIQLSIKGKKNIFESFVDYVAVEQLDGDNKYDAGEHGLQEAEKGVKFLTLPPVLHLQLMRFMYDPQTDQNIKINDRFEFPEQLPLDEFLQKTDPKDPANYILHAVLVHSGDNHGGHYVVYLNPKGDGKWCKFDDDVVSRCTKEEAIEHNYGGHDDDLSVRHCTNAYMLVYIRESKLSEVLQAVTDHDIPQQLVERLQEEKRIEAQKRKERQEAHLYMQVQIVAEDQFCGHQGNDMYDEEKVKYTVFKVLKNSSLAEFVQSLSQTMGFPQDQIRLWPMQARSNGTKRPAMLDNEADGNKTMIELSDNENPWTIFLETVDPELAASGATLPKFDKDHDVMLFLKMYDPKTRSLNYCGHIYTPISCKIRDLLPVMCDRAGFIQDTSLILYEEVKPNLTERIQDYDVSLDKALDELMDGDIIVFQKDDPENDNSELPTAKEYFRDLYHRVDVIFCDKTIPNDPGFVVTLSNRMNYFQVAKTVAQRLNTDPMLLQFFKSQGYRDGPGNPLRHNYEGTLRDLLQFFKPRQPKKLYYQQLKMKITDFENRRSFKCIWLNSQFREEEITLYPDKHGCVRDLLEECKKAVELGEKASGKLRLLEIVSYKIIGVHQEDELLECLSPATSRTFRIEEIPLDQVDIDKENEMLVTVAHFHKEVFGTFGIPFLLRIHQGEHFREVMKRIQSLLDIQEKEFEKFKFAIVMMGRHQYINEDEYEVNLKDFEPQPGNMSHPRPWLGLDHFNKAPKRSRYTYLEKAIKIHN
row,IC50,SMILES
1,< 10 nM,"O=c1ccn(CC(F)F)c(=O)n1Cc1cc2nccc(-c3cc(Cl)cc4c3N([C@H]3CCNC3)CCC4)c2s1 [Example 101, (S)-3-((7-(6-chloro-1-(pyrrolidin-3-yl)-1,2,3,4-tetrahydroquinolin-8-yl)thieno[3,2-b]pyridin-2-yl)methyl)-1-(2,2-difluoroethyl)pyrimidine-2,4(1H,3H)-dione]"
2,10 to 100 nM,"CC(C)CN1CC[C@H](N2CCCc3cc(Cl)cc(-c4ccnc5cc(CN6C(=O)CCC6=O)sc45)c32)C1 [Example 102, (S)-1-((7-(6-chloro-1-(1-isobutylpyrrolidin-3-yl)-1,2,3,4-tetrahydroquinolin-8-yl)thieno[3,2-b]pyridin-2-yl)methyl)pyrrolidine-2,5-dione]"
3,< 10 nM,"CC(F)(F)Cn1ccc(=O)n(Cc2cc3nccc(-c4cc(Cl)cc5c4N([C@H]4CCNC4)CCC5)c3s2)c1=O [Example 103, (S)-3-((7-(6-chloro-1-(pyrrolidin-3-yl)-1,2,3,4-tetrahydroquinolin-8-yl)thieno[3,2-b]pyridin-2-yl)methyl)-1-(2,2-difluoropropyl)pyrimidine-2,4(1H,3H)-dione]"
4,< 10 nM,"CC(F)(F)CCn1ccc(=O)n(Cc2cc3nccc(-c4cc(Cl)cc5c4N([C@H]4CCNC4)CCC5)c3s2)c1=O [Example 104, (S)-3-((7-(6-chloro-1-(pyrrolidin-3-yl)-1,2,3,4-tetrahydroquinolin-8-yl)thieno[3,2-b]pyridin-2-yl)methyl)-1-(3,3-difluorobutyl)pyrimidine-2,4(1H,3H)-dione]"
5,< 10 nM,"O=c1cc(CC(F)F)cnn1Cc1cc2nccc(-c3cc(Cl)cc4c3N([C@H]3CCNC3)CCC4)c2s1 [Example 105, (S)-2-((7-(6-chloro-1-(pyrrolidin-3-yl)-1,2,3,4-tetrahydroquinolin-8-yl)thieno[3,2-b]pyridin-2-yl)methyl)-5-(2,2-difluoroethyl)pyridazin-3(2H)-one]"
6,< 10 nM,"O=c1cc2n(c(=O)n1Cc1cc3nccc(-c4cc(Cl)cc5c4N([C@H]4CCNC4)CCC5)c3s1)CCC2 [Example 106, (S)-2-((7-(6-chloro-1-(pyrrolidin-3-yl)-1,2,3,4-tetrahydroquinolin-8-yl)thieno[3,2-b]pyridin-2-yl)methyl)-6,7-dihydropyrrolo[1,2-c]pyrimidine-1,3(2H,5H)-dione]"
7,< 10 nM,"O=C1CCC(=O)N1Cc1cc2ncc(F)c(-c3cc(Cl)cc4c3N([C@H]3CCNC3)CCC4)c2s1 [Example 109, 1-((7-(6-chloro-1-((S)-pyrrolidin-3-yl)-1,2,3,4-tetrahydroquinolin-8-yl)-6-fluorothieno[3,2-b]pyridin-2-yl)methyl)pyrrolidine-2,5-dione]"
8,101 to 1000 nM,O=C1CCC(=O)N1C1(c2cc3nccc(-c4cc(Cl)cc5c4N([C@H]4CCNC4)CCC5)c3s2)CC1 [Example 110]
9,< 10 nM,"O=c1ccn(CC(F)(F)F)c(=O)n1Cc1cc2nccc(-c3cc(Cl)cc4c3N([C@H]3CCNC3)C[C@H]3C[C@@H]43)c2s1 [Example 114, 3-((7-((1aS,7bR)-6-chloro-3-((S)-pyrrolidin-3-yl)-1a,2,3,7b-tetrahydro-1H-cyclopropa[c]quinolin-4-yl)thieno[3,2-b]pyridin-2-yl)methyl)-1-(2,2,2-trifluoroethyl)pyrimidine-2,4(1H,3H)-dione]"
10,101 to 1000 nM,"Cc1cc(-c2cc(Cl)cc3c2N([C@H]2CCNC2)CCC3)c2sc(CN3C(=O)CCC3=O)cc2n1 [Example 116, (S)-1-((7-(6-chloro-1-(pyrrolidin-3-yl)-1,2,3,4-tetrahydroquinolin-8-yl)-5-methylthieno[3,2-b]pyridin-2-yl)methyl)pyrrolidine-2,5-dione]"
11,101 to 1000 nM,"N#Cc1cc(-c2ccnc3cc(Cn4c(=O)ccn(CC(F)F)c4=O)sc23)c2c(c1)[C@H]1C[C@H]1CN2[C@@H]1CCNC1 [Example 117a, (1aR,7bS)-4-(2-((3-(2,2-difluoroethyl)-2,6-dioxo-3,6-dihydropyrimidin-1(2H)-yl)methyl)thieno[3,2-b]pyridin-7-yl)-3-((R)-pyrrolidin-3-yl)-1a,2,3,7b-tetrahydro-1H-cyclopropa[c]quinoline-6-carbonitrile]"
12,10 to 100 nM,"N#Cc1cc(-c2ccnc3cc(Cn4c(=O)ccn(CC(F)F)c4=O)sc23)c2c(c1)[C@@H]1C[C@@H]1CN2[C@@H]1CCNC1 [Example 117b, (1aS,7bR)-4-(2-((3-(2,2-difluoroethyl)-2,6-dioxo-2,3-dihydropyrimidin-1(6H)-yl)methyl)thieno[3,2-b]pyridin-7-yl)-3-((R)-pyrrolidin-3-yl)-1a,2,3,7b-tetrahydro-1H-cyclopropa[c]quinoline-6-carbonitrile]"
13,10 to 100 nM,"N#Cc1cc(-c2ccnc3cc(Cn4c(=O)ccn(CC(F)F)c4=O)sc23)c2c(c1)[C@H]1C[C@H]1CN2[C@H]1CCNC1 [Example 117c, (1aR,7bS)-4-(2-((3-(2,2-difluoroethyl)-2,6-dioxo-3,6-dihydropyrimidin-1(2H)-yl)methyl)thieno[3,2-b]pyridin-7-yl)-3-((S)-pyrrolidin-3-yl)-1a,2,3,7b-tetrahydro-1H-cyclopropa[c]quinoline-6-carbonitrile]"
14,< 10 nM,"N#Cc1cc(-c2ccnc3cc(Cn4c(=O)ccn(CC(F)F)c4=O)sc23)c2c(c1)[C@@H]1C[C@@H]1CN2[C@H]1CCNC1 [Example 117d, (1aS,7bR)-4-[2-[[3-(2,2-difluoroethyl)-2,6-dioxo-pyrimidin-1-yl]methyl]thieno[3,2-b]pyridin-7-yl]-3-[(3S)-pyrrolidin-3-yl]-1,1a,2,7b-tetrahydrocyclopropa[c]quinoline-6-carbonitrile]"
15,< 10 nM,"CC1(C)C[C@H](N2CCCc3cc(Cl)cc(-c4ccnc5cc(CN6C(=O)CCC6=O)sc45)c32)CN1 [Example 119, (S)-1-((7-(6-chloro-1-(5,5-dimethylpyrrolidin-3-yl)-1,2,3,4-tetrahydroquinolin-8-yl)thieno[3,2-b]pyridin-2-yl)methyl)pyrrolidine-2,5-dione]"
16,< 10 nM,"Cc1cnn(Cc2cc3nccc(-c4cc(C#N)cc5c4N([C@@H]4CN(C)C(C)(C)C4)CCC5)c3s2)c(=O)c1 [Example 122, (S)-8-(2-((4-methyl-6-oxopyridazin-1(6H)-yl)methyl)thieno[3,2-b]pyridin-7-yl)-1-(1,5,5-trimethylpyrrolidin-3-yl)-1,2,3,4-tetrahydroquinoline-6-carbonitrile]"
17,< 10 nM,"CN1C[C@@H](N2CCCc3cc(C#N)cc(-c4ccnc5cc(Cn6c(=O)ccn(C)c6=O)sc45)c32)CC1(C)C [Example 123, (S)-8-(2-((3-methyl-2,6-dioxo-2,3-dihydropyrimidin-1(6H)-yl)methyl)thieno[3,2-b]pyridin-7-yl)-1-(1,5,5-trimethylpyrrolidin-3-yl)-1,2,3,4-tetrahydroquinoline-6-carbonitrile]"
18,< 10 nM,"CC1(C)C[C@H](N2CCCc3cc(C#N)cc(-c4ccnc5cc(CN6C(=O)C7CC7C6=O)sc45)c32)CN1 (stereo partly drawn) [Example 124, 1-((S)-5,5-dimethylpyrrolidin-3-yl)-8-(2-((2,4-dioxo-3-azabicyclo[3.1.0]hexan-3-yl)methyl)thieno[3,2-b]pyridin-7-yl)-1,2,3,4-tetrahydroquinoline-6-carbonitrile]"

# Source: patent US20240158412A1 (Faxian Therapeutics, LLC, priority 2021, published 2024)
